Laboratory results as given in patent publication US20230286929A1, “AROMATIC BRIDGED RING AMIDE DERIVATIVES FOR THE TREATMENT AND PROPHYLAXIS OF HEPATITIS B VIRUS INFECTION” (Hoffmann-La Roche Inc., priority 2020, published 2023).

Experiments:
Type in all cases: cell-based
[1] = test system: HBsAg; experiment: PHH HBV natural infection assay, HBsAg (alphalisa); conditions: Hepatitis B virus, Hepatocyte, 72 h, read-out: HBsAg IC50
Procedure: (§1) Detailed procedures regarding primary human hepatocyte (PHH) HBV natural infection assay are described as below. One tube of frozen PHH (10 million cells) is thawed in 37° C. water bath and then transferred to 20 mL of PHH thawing medium (Sigma, InVitroGRO HT Medium, Cat. S03319) with gently mixing. The cells were then centrifuged at […] for 5 min, the supernatant was discarded and the tube was refilled with 25 mL of PHH plating medium (Sigma, InVitroGRO CP Medium, Cat. 503317). The tube was shaken very gently to re-suspend all cells. 50 μl of cells were transferred to each well 384-well collagen I coated plate with appropriate liquid handling equipment, e.g. Integra VIAFLO384 or Agilent Bravo. The cells were then cultured for 24 hours in a cell incubator. For HBV infection, after PHH attachment on the culture plate, the plating medium was removed and replenished with PHH culture medium containing HBV virus. The PHH culture medium was prepared with Dulbecco's Modified Eagle Medium (DMEM)/F12 (1:1 in volume ratio) containing 10% fetal bovine serum (Gibco, Cat. 10099141), […] (Gibco, Cat. PHG03I1L), 20 ng/mL dexamethasone (Sigma, Cat. D4902-100 mg), 250 ng/mL human recombinant insulin (Gibco, Cat. 41400045) and 100 U/mL penicillin. HBV virus at 200 genome equivalent (GE) per cell with 4% PEG8000 (Sigma, Cat. P1458) containing culture medium were added to the PHH culture medium for infection. The cells were then cultured for 24 hours in cell incubator. Then the cell culture supernatant was removed. The HBV-infected PHH were cultured with sandwich culture method with PHH culture medium containing 1% DMSO and 0.25 mg/mL matrix gel for 72 hours. The supernatant was then refreshed with PHH culture medium containing different concentrations of testing compounds for two times with 72-hour interval. At the end of treatment, the supernatant was collected for viral markers measurements, including HBsAg, HBeAg, HBV DNA and cytotoxicity. HBsAg and HBeAg were detected using alphalisa method using their specific antibodies. For HBV DNA detection, HBV DNA Quantitative Fluorescence Diagnostic Kit (Sansure Biotech Inc.) was used following the manufacture's protocol. Cytotoxicity was determined using Cell Counting Kit-8 (CCK8, Dojindo Molecular Technologies, Inc.).
(§2) The compounds of the present invention were tested for their capacity to inhibit HBsAg and HBeAg as described herein.

[2] = Cytotoxicity in PHH natural infection assay (Cell Counting Kit-8); conditions: HBV-infected primary human hepatocytes, CCK8
Procedure: as §1

[3] = test system: HBeAg; experiment: PHH HBV natural infection assay, HBeAg (alphalisa); conditions: Hepatitis B virus, Hepatocyte, 72 h, read-out: HbeAg IC50
Procedure: as §1, §2

SMILES: CS(=O)(=O)c1ccc(C(=O)NC23CC(c4nc5cc(Cl)ccc5o4)(C2)C3)o1 [Example 1, N-[3-(5-chloro-1,3-benzoxazol-2-yl)-1-bicyclo[1.1.1]pentanyl]-5-methylsulfonyl-furan-2-carboxamide]
- IC50 [1]: 2.17 µM
- CC50 at 144 h [2]: > 100 µM
- IC50 [3]: 1.77 µM

SMILES: C[S+]([O-])c1ccc(C(=O)NC23CC(c4nc5cc(Cl)ccc5o4)(C2)C3)o1 (stereo not drawn) [Example 2, N-[3-(5-chloro-1,3-benzoxazol-2-yl)-1-bicyclo[1.1.1]pentanyl]-5-methylsulfinyl-furan-2-carboxamide]
- IC50 [1]: 6.45 µM
- CC50 at 144 h [2]: > 100 µM
- IC50 [3]: 2.14 µM

SMILES: C[S@+]([O-])c1ccc(C(=O)NC23CC(c4nc5cc(Cl)ccc5o4)(C2)C3)o1 [Example 2-a, N-[3-(5-chloro-1,3-benzoxazol-2-yl)-1-bicyclo[1.1.1]pentanyl]-5-[(S)-methylsulfinyl]furan-2-carboxamide]
- IC50 [1]: 2.38 µM
- CC50 at 144 h [2]: > 100 µM
- IC50 [3]: 1.19 µM

SMILES: C[S@@+]([O-])c1ccc(C(=O)NC23CC(c4nc5cc(Cl)ccc5o4)(C2)C3)o1 [Example 2-b, N-[3-(5-chloro-1,3-benzoxazol-2-yl)-1-bicyclo[1.1.1]pentanyl]-5-[(R)-methylsulfinyl]furan-2-carboxamide]
- IC50 [1]: 3.64 µM
- CC50 at 144 h [2]: > 100 µM
- IC50 [3]: 1.89 µM

SMILES: CSc1ccc(C(=O)NC23CC(c4nc5cc(Cl)ccc5o4)(C2)C3)o1 [Example 3, N-[3-(5-chloro-1,3-benzoxazol-2-yl)-1-bicyclo[1.1.1]pentanyl]-5-methylsulfanyl-furan-2-carboxamide]
- IC50 [1]: 8.05 µM
- CC50 at 144 h [2]: > 100 µM
- IC50 [3]: 3.83 µM

SMILES: O=C(NC12CC(c3nc4cc(Cl)ccc4o3)(C1)C2)c1ccc([S+]([O-])C2CC2)o1 (stereo not drawn) [Example 4, N-[3-(5-chloro-1,3-benzoxazol-2-yl)-1-bicyclo[1.1.1]pentanyl]-5-cyclopropylsulfinyl-furan-2-carboxamide]
- IC50 [1]: 2.81 µM
- CC50 at 144 h [2]: 80 µM
- IC50 [3]: 1.32 µM

SMILES: O=C(NC12CC(c3nc4cc(Cl)ccc4o3)(C1)C2)c1ccc(S(=O)(=O)C2CC2)o1 [Example 5, N-[3-(5-chloro-1,3-benzoxazol-2-yl)-1-bicyclo[1.1.1]pentanyl]-5-cyclopropylsulfonyl-furan-2-carboxamide]
- IC50 [1]: 0.688 µM
- CC50 at 144 h [2]: > 100 µM
- IC50 [3]: 0.75 µM

SMILES: O=C(NC12CC(c3nc4cc(Cl)ccc4o3)(C1)C2)c1ccc([S+]([O-])CC2CC2)o1 (stereo not drawn) [Example 6, N-[3-(5-chloro-1,3-benzoxazol-2-yl)-1-bicyclo[1.1.1]pentanyl]-5-(cyclopropylmethylsulfinyl)furan-2-carboxamide]
- IC50 [1]: 2.02 µM
- CC50 at 144 h [2]: > 100 µM
- IC50 [3]: 1.37 µM

SMILES: O=C(NC12CC(c3nc4cc(Cl)ccc4o3)(C1)C2)c1ccc(S(=O)(=O)CC2CC2)o1 [Example 7, N-[3-(5-chloro-1,3-benzoxazol-2-yl)-1-bicyclo[1.1.1]pentanyl]-5-(cyclopropylmethylsulfonyl)furan-2-carboxamide]
- IC50 [1]: 1.31 µM
- CC50 at 144 h [2]: 73.1 µM
- IC50 [3]: 1.21 µM

SMILES: O=C(NC12CC(c3nc4cc(Cl)ccc4o3)(C1)C2)c1ccc(Br)o1 [Example 8, 5-bromo-N-[3-(5-chloro-1,3-benzoxazol-2-yl)-1-bicyclo[1.1.1]pentanyl]furan-2-carboxamide]
- IC50 [1]: 9.04 µM
- CC50 at 144 h [2]: > 100 µM
- IC50 [3]: 14.8 µM

SMILES: CS(=O)(=O)c1ccc(C(=O)NC23CC(c4nc5cc(Cl)ccc5o4)(C2)C3)s1 [Example 9, N-[3-(5-chloro-1,3-benzoxazol-2-yl)-1-bicyclo[1.1.1]pentanyl]-5-methylsulfonyl-thiophene-2-carboxamide]
- IC50 [1]: 9.64 µM
- CC50 at 144 h [2]: > 100 µM
- IC50 [3]: 5.37 µM

SMILES: NS(=O)(=O)c1ccc(C(=O)NC23CC(c4nc5cc(Cl)ccc5o4)(C2)C3)o1 [Example 10, N-[3-(5-chloro-1,3-benzoxazol-2-yl)-1-bicyclo[1.1.1]pentanyl]-5-sulfamoyl-furan-2-carboxamide]
- IC50 [1]: 4.44 µM
- CC50 at 144 h [2]: > 100 µM
- IC50 [3]: 2.67 µM
